Test results reported in patent US20160045505A1, “COMPOUNDS AND COMPOSITIONS FOR THE TREATMENT OF PARASITIC DISEASES” (NOVARTIS AG, priority 2013, published 2016).
Where two headings read alike, the source gives them in different places.

Experiments:
[1] = system: Trypanosoma cruzi amastigotes (Tulahuen strain expressing Lac-Z) cultured in 3T3 fibroblast cells; assay: microbe, parasite or virus in culture; type: cell-based; conditions: Trypanosoma cruzi, TULAHUEN, Fibroblast, T. cruzi amastigotes in 3T3 fibroblast cells, read-out: T cruzi EC50
[2] = system: Leishmania donovani axenic amastigote parasites; assay: Leishmania donovani axenic amastigote proliferation assay (Cell TiterGlo luminescence, 2 day incubation); type: cell-based; conditions: Leishmania donovani, read-out: L. donovani amastigotes EC50
[3] = system: Trypanosoma brucei Lister 427 strain, bloodstream form; assay: Assay for proliferation of kinetoplastid parasite Trypanosoma brucei (Cell Titer Glo, 48 hours); type: cell-based; conditions: Trypanosoma brucei
Procedure, shortened: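 Bloodstream-form T. brucei Lister 427 in HMI-9 medium was exposed to compound (DMSO vehicle) for 48 hours at 37° C, 5% CO2. Parasite growth was read as ATP by CellTiter-Glo luminescence, with EC50 calculated from percent inhibition.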

[4] = system: L. donovani HU3 strain in mouse peritoneal macrophages; assay: Assay for proliferation of Leishmania parasites in infected mouse peritoneal macrophages (SybrGreen staining, high-content imaging, 5 days); type: cell-based, Leishmania donovani; conditions: Leishmania donovani, Peritoneal macrophage, L. donovani in mouse peritoneal macrophages, read-out: L. donovani Macrophage EC50
[5] = T. brucei Lister 427 bloodstream form, read-out: T. brucei EC50
[6] = axenic amastigotes, inhibition of proliferation
[7] = T. brucei Lister 427 bloodstream form, inhibition of proliferation, read-out: T. brucei EC50

| SMILES | EC50 [1] [nM] | EC50 ([2]; L. donovani axenic amastigotes) [nM] | EC50 [3, 5] [µM] | EC50 [4] [nM] | EC50 ([1]; inhibition of proliferation) [nM] | EC50 [2, 6] [nM] | EC50 [3, 7] [µM] | EC50 ([4]; inhibition of proliferation) [nM] | EC50 ([3]; read-out: T. brucei EC50) [µM] | EC50 ([3]; read-out: T. brucei EC50 (μM)) [µM] |
| --- | --- | --- | --- | --- | --- | --- | --- | --- | --- | --- |
| Cc1nc(C)c(C(=O)Nc2ccc(F)c(-c3cn4cc(NCc5ncc[nH]5)cnc4n3)c2)o1 [Compound 479] | > 20000 | > 22800 | 41.9 | > 50000 | – | – | – | – | – | – |
| Cc1nc(C)c(C(=O)Nc2ccc(F)c(-c3cn4cc(NC5=N[C@H]6CCCC[C@@H]6O5)cnc4n3)c2)o1 [Compound 510] | 2610 | 1600 | 4.01 | 8130 | – | – | – | – | – | – |
| O=C(Nc1cnc2nc(-c3cc(NC(=O)N4CCCC4)ccc3F)cn2c1)[C@H]1CCCO1 [Compound 126] | – | – | – | – | 4860 | 434 | 0.126 | 4050 | – | – |
| CC(C)OC(=O)Nc1cnc2nc(-c3cc(NC(=O)c4c[nH]cn4)ccc3F)cn2c1 [Compound 81] | – | – | – | – | > 20000 | > 25000 | > 50 | > 50000 | – | – |
| Cc1nc(C)c(C(=O)Nc2ccc(F)c(-c3cn4cc(-c5cncc(C(C)C)c5)cnc4n3)c2)o1 [Compound 438] | 146 | 141 | 0.109 | 282 | – | – | – | – | – | – |
| Cc1ccc(C(=O)Nc2ccc(F)c(-c3cn4cc(NC(=O)OC(C)C)cnc4n3)c2)o1 [Compound 80] | – | – | – | – | 63 | 89 | 0.059 | 244 | – | – |
| Cc1nc(C)c(C(=O)Nc2ccc(F)c(-c3cn4cc(-c5ccc(S(C)(=O)=O)cc5F)cnc4n3)c2)o1 [Compound 362] | – | – | – | – | > 20000 | 403 | 0.345 | > 34400 | – | – |
| COCC(=O)Nc1ccc(F)c(-c2cn3cc(NC(=O)OC(C)C)cnc3n2)c1 [Compound 106] | – | – | – | – | 3450 | 2740 | 2.2 | 24800 | – | – |
| CC(C)OC(=O)Nc1ccc(F)c(-c2cn3cc(C(F)(F)F)cnc3n2)c1 [Compound 301, isopropyl (4-fluoro-3-(6-(trifluoromethyl)imidazo[1,2-a]pyrimidin-2-yl)phenyl)carbamate] | – | – | – | – | 444 | 727 | – | > 32400 | 0.307 | – |
| Cc1nc(C(=O)Nc2ccc(Cl)c(-c3cn4cc(NC(=O)OC(C)C)cnc4n3)c2)no1 [Compound 528] | > 20000 | > 25000 | 6.96 | 8940 | – | – | – | – | – | – |
| Cc1nc(C(=O)Nc2ccc(Cl)c(-c3cn4cc(NC(=O)OC(C)C)cnc4n3)c2)c(C)o1 [Compound 46] | – | – | – | – | 262 | 1390 | 3.01 | 4990 | – | – |
| Cc1nc(C)c(C(=O)Nc2ccc(F)c(-c3cn4cc(-c5ccc(N6CCOCC6)cc5)cnc4n3)c2)o1 [Compound 383] | 137 | 146 | 0.331 | 521 | – | – | – | – | – | – |
| Cc1nc(C)c(C(=O)Nc2ccc(F)c(-c3cn4cc(-c5cscn5)cnc4n3)c2)o1 [Compound 374] | 41 | 40 | 0.425 | 43 | – | – | – | – | – | – |
| O=C(Nc1ccc(F)c(-c2cn3cc(NC(=O)C4(O)CC4)cnc3n2)c1)N1CCCC1 [Compound 140] | – | – | – | – | > 17600 | 1270 | 0.378 | 8380 | – | – |
| COC(=O)COc1cnc2nc(-c3cc(NC(=O)c4oc(C)nc4C)ccc3F)cn2c1 [Compound 609] | > 20000 | 835 | 1.05 | 5970 | – | – | – | – | – | – |
| COc1cccc(-c2cnc3nc(-c4cc(NC(=O)c5oc(C)nc5C)ccc4F)cn3c2)n1 [Compound 458] | 43 | 75 | 0.12 | 513 | – | – | – | – | – | – |
| Cc1nc(C)c(C(=O)Nc2ccc(F)c(-c3cn4cc(-c5ccn(C)n5)cnc4n3)c2)o1 [Compound 363] | – | – | – | – | 45 | 77 | 0.058 | 136 | – | – |

| SMILES | EC50 [1] [nM] | EC50 ([2]; L. donovani axenic amastigotes) [nM] | EC50 [3, 5] [µM] | EC50 [4] [nM] | EC50 ([1]; inhibition of proliferation) [nM] | EC50 [2, 6] [nM] | EC50 [3, 7] [µM] | EC50 ([4]; inhibition of proliferation) [nM] | EC50 ([3]; read-out: T. brucei EC50) [µM] | EC50 ([3]; read-out: T. brucei EC50 (μM)) [µM] |
| --- | --- | --- | --- | --- | --- | --- | --- | --- | --- | --- |
| Cc1nc(C)c(C(=O)Nc2ccc(F)c(-c3cn4cc(NC(=O)c5nc(NC(=O)OC(C)(C)C)cn5C)cnc4n3)c2)o1 [Compound 176] | – | – | – | – | > 20000 | > 25000 | > 50 | > 50000 | – | – |
| Cc1nc(C)c(C(=O)Nc2ccc(F)c(-c3nc4ncc(-c5ccccc5)cn4c3F)c2)o1 [Compound 338] | – | – | – | – | 18 | 47 | 0.04 | 101 | – | – |
| O=C(Nc1cnc2nc(-c3cc(NC(=O)N4CCCC4)ccc3F)cn2c1)C1COCCO1 (stereo not drawn) [Compound 143] | – | – | – | – | 7910 | 478 | 0.159 | 1400 | – | – |
| CC(C)OC(=O)Nc1cnc2nc(-c3cc(N4C(=O)c5ccccc5C4=O)ccc3Cl)cn2c1 [Compound 530, isopropyl (2-(2-chloro-5-(1,3-dioxoisoindolin-2-yl)phenyl)imidazo[1,2-a]pyrimidin-6-yl)carbamate] | > 20000 | > 13100 | – | > 50000 | – | – | – | – | – | > 50 |
| CC(C)OC(=O)Nc1cnc2nc(-c3cc(NC(=O)c4ccc(Br)o4)ccc3F)cn2c1 [Compound 70] | – | – | – | – | 72 | 136 | 0.054 | 190 | – | – |
| Cc1nc(C)c(C(=O)Nc2ccc(F)c(-c3cn4cc(-c5ccc(OCCN6CCOCC6)cc5)cnc4n3)c2)o1 [Compound 359] | – | – | – | – | 405 | 450 | 1.5 | 4860 | – | – |
| COCCC(=O)Nc1cnc2nc(-c3cc(NC(=O)c4oc(C)nc4C)ccc3F)cn2c1 [Compound 166] | – | – | – | – | > 20000 | 2280 | 1.01 | > 46300 | – | – |
| CCN(C)C(=O)Nc1ccc(F)c(-c2cn3cc(-c4ccccn4)cnc3n2)c1 [Compound 381] | 445 | 392 | 0.482 | 1440 | – | – | – | – | – | – |
| [2H]C([2H])([2H])N(C(=O)Nc1ccc(F)c(-c2cn3cc(C4CC4)cnc3n2)c1)C([2H])([2H])[2H] [Compound 606] | 380 | 545 | 0.267 | 3200 | – | – | – | – | – | – |
| Cc1nc(C)c(C(=O)Nc2ccc(F)c(-c3cn4cc(N(C)C)cnc4n3)c2)o1 [Compound 470] | 148 | 252 | 0.159 | 689 | – | – | – | – | – | – |
| Cc1nc(C)c(C(=O)Nc2ccc(F)c(-c3cn4cc(N5CCC[C@@H]5C(F)(F)F)cnc4n3)c2)o1 [Compound 492] | 310 | 841 | 0.472 | 1520 | – | – | – | – | – | – |
| Cc1nc(C)c(C(=O)Nc2ccc(F)c(-c3cn4cc(-c5ncc(F)cc5C)cnc4n3)c2)o1 [Compound 430, N-(4-fluoro-3-(6-(5-fluoro-3-methylpyridin-2-yl)imidazo[1,2-a]pyrimidin-2-yl)phenyl)-2,4-dimethyloxazole-5-carboxamide] | 10 | 31 | 0.052 | 59 | – | – | – | – | – | – |
| O=C1CCC(C(=O)Nc2cnc3nc(-c4cc(NC(=O)N5CCCC5)ccc4F)cn3c2)N1 (stereo not drawn) [Compound 125] | – | – | – | – | > 20000 | > 21900 | 7.94 | > 50000 | – | – |
| Cc1nc(C)c(C(=O)Nc2ccc(F)c(-c3cn4cc(C#CCCN5CCCC(O)C5)cnc4n3)c2)o1 (stereo not drawn) [Compound 545] | 7180 | 3900 | 3.25 | 2130 | – | – | – | – | – | – |
| Cc1nc(C)c(C(=O)Nc2ccc(F)c(-c3cn4cc(-c5cnn(CCN6CCOCC6)c5)cnc4n3)c2)o1 [Compound 388] | 3530 | 1010 | 0.415 | 2950 | – | – | – | – | – | – |
| Nc1cc(-c2cnc3nc(-c4cc(NC(=O)N5CCCC5)ccc4F)cn3c2)ccn1 [Compound 342] | – | – | – | – | 9360 | 2140 | 0.364 | 14600 | – | – |
